Assay results: patent US11578083B2, “Pyrimidinium compounds and their mixtures for combating animal pests” (BASF SE, priority 2017, dated 2023)

Columns and labels:
Format in all cases: in vivo
[1] = test system: yellow fever mosquito (Aedes aegypti); settings: in vivo
Description: For evaluating control of yellow fever mosquito (Aedes aegypti) the test unit consisted of 96-well-microtiter plates containing 200 μl of tap water per well and 5-15 freshly hatched A. aegypti larvae.
The compounds or mixtures were formulated using a solution containing 75% water and 25% DMSO. Different concentrations of formulated compounds or mixtures were sprayed onto the insect diet at 2.5 μl, using a custom built micro atomizer, at two replications.
(§1) For experimental mixtures in these tests identical volumes of both mixing partners at the desired concentrations respectively, were mixed together.
After application, microtiter plates were incubated at 28±1° C., 80±5% RH for 2 days. Larval mortality was then visually assessed.

[2] = test system: Greenhouse Whitefly (Trialeurodes vaporariorum); assay: Greenhouse Whitefly, egg plant leaf disk (table 5, mixtures); settings: solo application Oxazosulfyl, use rate 50 ppm
Description: For evaluating control of Greenhouse Whitefly (Trialeurodes vaporariorum) the test unit consisted of 96-well-microtiter plates containing a leaf disk of egg plant leaf disk with white fly eggs. The compounds or mixtures were formulated using a solution containing 75% water and 25% DMSO. Concentrations of formulated compounds or mixtures were sprayed onto the […] at 2.5 μl, using a custom built micro atomizer, at two replications.
as §1
After application, microtiter plates were incubated at 23±1° C., 65±5% RH for 6 days. Mortality of hatched crawlers was then visually assessed.

[3] = test system: vetch aphid (Megoura viciae); assay: Test 1 vetch aphid, leaf disks (mixtures); settings: Table 1, solo application Spinetoram, use rate 2 ppm
From the text: Synergism can be described as an interaction where the combined effect of two or more compounds is greater than the sum of the individual effects of each of the compounds. The presence of a synergistic effect in terms of percent control, between two mixing partners (X and Y) can be calculated using the Colby equation (Colby, S. R., 1967, Calculating Synergistic and Antagonistic Responses in Herbicide Combinations, Weeds, 15, 20-22):
When the observed combined control effect is greater than the expected combined control effect (E), then the combined effect is synergistic.
The analysis of synergism or antagonism between the mixtures or compositions was determined using Colby's equation.
For evaluating control of vetch aphid (Megoura viciae) through contact or systemic means the test unit consisted of 24-well-microtiter plates containing broad bean leaf disks.
The compounds or mixtures were formulated using a solution containing 75% water and 25% DMSO. Concentrations of formulated compounds or mixtures were sprayed onto the leaf disks at 2.5 μl, using a custom built micro atomizer, at two replications. […]
After application, the leaf disks were air-dried and 5-8 adult aphids placed on the leaf disks inside the microtiter plate wells. […] Aphid mortality and fecundity was then visually assessed.

[4] = test system: brown planthopper (Nilaparvata lugens); assay: Test 6 brown planthopper, foliar spray (mixtures); settings: Table 6.2, after 7 days, solo application Spinetoram, use rate 70 ppm
Description: For evaluating control of brown planthopper (Nilaparvata lugens) by foliar spray method. Clean potted rice seedlings with upper leaf portion cut are properly labeled. Placed three potted rice plants per treatment concentration/combination on top of the rotating disc (270 mm) and sprayed with the 12 mL spray solution. Treated plants are allowed to air-dry in the laboratory for about an hour. After air-drying, covered each treated rice plant. Each treated plant was infested with brown planthoppers using a suction vacuum. Plants are maintained at 27° C.±1° C., 50±5% RH and 24 hours light conditions in a holding room. Percent mortality is recorded 7 days after infestation by counting both the dead and alive brown planthoppers on the plants and on the water.

[5] = test system: boll weevil (Anthonomus grandis); assay: Test 3 boll weevil, insect diet with eggs (mixtures); settings: Table 3.2, solo application Spinetoram, use rate 4 ppm
Description: For evaluating control of boll weevil (Anthonomus grandis) the test unit consisted of 24-well-microtiter plates containing an insect diet and 20-30 A. grandis eggs.
The compounds or mixtures were formulated using a solution containing 75% water and 25% DMSO. Concentrations of formulated compounds or mixtures were sprayed onto the insect diet at 20 μl, using a custom built micro atomizer, at two replications.
as §1
After application, microtiter plates were incubated at 23±1° C., 50±5% RH for 5 days. Egg and larval mortality was then visually assessed.

[6] = test system: Cowpea aphid (Aphis craccivora); assay: B.3 Cowpea aphid leaf disk test; settings: foliar, 120 h
Description: If not otherwise specified, the test solutions are prepared as follows:
The active compound is dissolved at the desired concentration in a mixture of 1:1 (vol:vol) distilled water: acetone. The test solution is prepared at the day of use.
B.3 Cowpea aphid (Aphis craccivora):
For evaluating control of Cowpea aphid through contact or systemic means the test unit consists of 24-well-microtiter plates containing broad bean leaf disks.
The compounds are formulated using a solution containing 75% v/v water and 25% v/v DMSO. Different concentrations of formulated compounds are sprayed onto the leaf disks at 2.5 μl, using a custom built micro atomizer, at two replications.
After application, the leaf disks are air-dried and 5-8 adult aphids placed on the leaf disks inside the microtiter plate wells. The aphids are then allowed to suck on the treated leaf disks and incubated at about 23±1° C. and about 50±5% relative humidity for 5 days. Aphid mortality and fecundity is then visually assessed.

[7] = test system: Chilo suppressalis; assay: B.3c Rice striped stem borer, drench application; settings: Chilo suppressalis neonates, Dose 10 mg, 14 DAT
From the text: The test solution was poured onto the soil of each potted rice plant (=replicate) with five tillers each pot. After drench application, treated plants were transferred inside the screenhouse for three days prior to stemborer inoculation inside the laboratory. Three days after drench application, 5 to 6-day old egg masses of CHILSU were used for inoculation. All stemborer-infested potted rice plants were transferred inside the screenhouse 1 day after inoculation until the final assessment. […] Whole plant damage was assessed before cutting each hill at the basal portion for tiller dissection. Each dissected tiller was inspected looking for dead (if possible) and alive stemborer larvae.

[8] = test system: Rice brown plant hopper (Nilaparvata lugens); assay: B.2 Rice brown plant hopper, sprayed rice seedlings; settings: 72 h
Description: B.2 Rice Brown Plant Hopper (Nilaparvata lugens):
(§2) Rice seedlings are cleaned and washed 24 hours before spraying. The active compounds are formulated in 50:50 acetone:water (vol:vol) and 0.1% vol/vol surfactant (EL 620) is added. Potted rice seedlings are sprayed with 5 ml test solution, air dried, placed in cages and inoculated with 10 adults. Treated rice plants are kept at about 28-29° C. and relative humidity of about 50-60%. Percent mortality is recorded after 72 hours.

[9] = test system: Chilo suppressalis; assay: B.3a Rice stem borer vial bioassay; settings: 72 h
Description: Field-collected rice straws were washed with tap water and cut for a certain of length. Straws were air dried before placing individually in vials (=replicate, 3×). About 125 μl test solution was sprayed per vial. Treated rice straws in vials were air dried under the laboratory hood. After air-drying, each straw was inoculated with 10 newly-emerged (0-day old) stem borer larvae. Vials were then covered. Set-up was kept in a holding room maintained at 27° C. and 65% RH for three days. At 3 days after inoculation, rice straws were manually dissected for larval mortality assessment. The data (Table C) show activity against two species of rice stem borers.

[10] = test system: Thrips (Dichromothrips corbetti); assay: B.4 Thrips floral-immersion test; settings: 72 h
Description: B.4 Thrips (Dichromothrips Corbetti):
Dichromothrips corbetti adults used for bioassay are obtained from a colony maintained continuously under laboratory conditions. For testing purposes, the test compound is diluted in a 1:1 mixture of acetone:water (vol:vol), plus 0.01% vol/vol Alkamuls® EL 620 surfactant.
Thrips potency of each compound is evaluated by using a floral-immersion technique. Plastic petri dishes are used as test arenas. All petals of individual, intact orchid flowers are dipped into treatment solution and allowed to dry. Treated flowers are placed into individual petri dishes along with about 20 adult thrips. The petri dishes v then covered with lids. All test arenas are held under continuous light and a temperature of about 28° C. for duration of the assay. After 3 days, the numbers of live thrips are counted on each flower, and along inner walls of each petri dish. The percent mortality is recorded 72 hours after treatment.

[11] = test system: Chilo suppressalis; assay: B.3b Rice striped stem borer, foliar spraying
Description: All three pots (=replicates) of four to five-week old potted rice per treatment were simultaneously sprayed with 12 mL test solution. After spray application, plants were air dried in the laboratory before inoculation. After air-drying, 5 to 6-day old egg masses of CHILSU were used for inoculation. All stem borer-infested potted rice plants were transferred inside the screenhouse 1 day after inoculation until the final assessment. […] Whole plant damage was assessed before cutting each hill at the basal portion for tiller dissection. Each dissected tiller was inspected looking for dead (if possible) and alive stemborer larvae.

[12] = test system: Rice green leafhopper (Nephotettix virescens); assay: B.1 Rice green leafhopper, sprayed rice seedlings; settings: 72 h
Description: B.1 Rice Green Leafhopper (Nephotettix virescens):
as §2, with “(vol:vol),” for “(vol:vol)”

With Cc1cccc2sc3nncn3c12 [Tricyclazol, tricyclazole, reference compound] the Average control % [1] was 50%.
For CCS(=O)(=O)c1cccnc1-c1nc2cc(S(=O)(=O)C(F)(F)F)ccc2o1 [Oxazosulfyl, 2-(3-ethylsulfonyl-2-pyridyl)-5-(trifluoromethylsulfonyl)-1,3-benzoxazole, reference compound], the Average control % [2] was 50%.
spinetoram [reference compound] was tested, and the Average control % [3] was 50%, the Average control % [4] was 62% and the Average control % [5] was 0%.
C[n+]1c2n(c([O-])c(-c3ccccc3)c1=O)C(c1cnc(Cl)s1)CS2 (racemic) [Compound I-1, 3-(2-chlorothiazol-5-yl)-8-methyl-7-oxo-6-phenyl-2,3-dihydrothiazolo[3,2-a]pyrimidin-8-ium-5-olate] was tested, and the mortality at 1 ppm [6] was 80%, the “Feeding damage (%)” value [7] was 15% and the mortality at 1 ppm [8] was 54%. For the same compound, the mortality at 300 ppm [9] was 80%, the mortality at 10 ppm [10] was 73% and the “Feeding damage (%)” value ([11]; Chilo suppressalis neonates, foliar spraying, Dose 200 ppm, 14 DAT) was 15%. The mortality at 200 ppm ([11]; Chilo suppressalis, foliar, 336 h) was 96% and the mortality at 1 ppm [12] was 50%.
